{"source": "patent US20090054521A1", "about": "“ZWITTERIONIC COMPOUNDS AND USE THEREOF” (Evonik Goldschmidt GmbH, priority 2007, published 2009)", "key": {"[1]": {"tested_on": "skin models (reconstituted human epidermis, SkinEthic)", "assay": "LDH release following damage to the cells with SDS, O/W cream", "details": "SDS damage for 40 min, no test formulation; total LDH after 24 and 48 h", "protocol": "The LDH concentration was determined using a commercially available test kit (LDH test kit, Roche Diagnostics, Mannheim, Germany).\nSodium dodecyl sulphate (SDS) is known to attack the cell membrane and lead to increased LDH release. Using the experiment described below, the aim was to investigate to what extent Compound 2.1 can protect the cells following damage with SDS.\nThe skin models were damaged with SDS for 40 min. The test formulation, an O/W cream with 1 or 4% of Compound 2.1, was then applied. The LDH release was measured 24 and 48 h after application of the test formulation."}, "[2]": {"tested_on": "skin models (reconstituted human epidermis, SkinEthic)", "assay": "Anti-inflammatory effect (IL-1α) of an O/W cream after SDS damage", "format": "cell-based", "details": "no test formulation, summed IL-1α after 24 and 48 h", "protocol": "IL1-α is a messenger which plays a central role in inflammatory reactions in the body. Sodium lauryl sulphate (SDS) is a skin-irritative surfactant which can cause an irritative contact dermatitis in people, is used as model irritative in subject studies and, inter alia, induces the release of IL-1α. The IL-1α concentration was determined using a commercially available test kit (human IL-1α immunoassay, R&D Systems GmbH, Wiesbaden, Germany).\nThe aim was to investigate whether the anti-inflammatory effect of the compounds according to the invention is also present upon application from a cosmetic formulation. For this purpose, skin models were damaged with SDS. The test formulation was then applied. 24 and 48 h after the application, the Il-1α concentration was determined."}}}
{"smiles": "CCCCCCCCCCCCOS(=O)(=O)[O-].[Na+]", "note": "[SDS, Sodium dodecyl sulphate]", "values": [{"measurement": "LDH release as a result of the damage", "setting": "[1]", "result": "increased greatly"}, {"measurement": "formation of the cytokine IL-1α as a result of the damage", "setting": "[2]", "result": "increased greatly"}]}
